US20060127980A1, “Human excitatory amino acid transporter-2 gene promoter and uses thereof” (priority 2003, published 2006)
Values belong to the compound of their own block, whether it stands above or below them.

Columns and labels:
Assay type in all cases: cell-based, human
hEAAT2 mRNA = experiment: Northern blot of hEAAT2 mRNA in PHFA treated with modulators; details: for hEAAT2 mRNA expression: 7-day treatment, EGF 30 ng/ml, TGF-α 30 ng/ml, dbcAMP 200 μM, bromo-cAMP 100 μM, TNF-α 200 U/ml
Protocol: (§1) FIG. 4A-D. Effect of modulators of hEAAT2 activity on hEAAT2 expression and hEAAT2 promoter activity in PHFA. A. A Northern analysis of hEAAT2 and GAPDH mRNA expression following treatment with EGF (30 ng/ml), TGF-α (30 ng/ml), dbcAMP (200 μM, bromo-cAMP (100 μM) or TNF-α (200 U/ml) for 7 days. B. Nuclear run-on assays determining the relative rates of hEAAT2 and GAPDH transcription as a function of 7-day treatment with the same concentrations of the indicated agents. C. A time course of mRNA expression of hEAAT2 and GAPDH following treatment with EGF, bromo-cAMP or TNF-α (same concentrations as in A.). D. Fold luciferase activity in PHFA transfected with flhEAAT2Prom-luc or various deletion mutants of hEAAT2 and non-transfected controls treated with the indicated compounds for four days.
(§2) Northern and Western Blotting Assays. Total cellular RNA was isolated by the guanidinium/phenol extraction method and Northern blotting was performed as described (Huang et al., 2001, Oncogene 20(48):7051-7063; Su et al., 2000, Oncogene 19(30):3411-3421; Su et al., 2001, Nucleic Acids Res 29(8):1661-1671). Western blotting assays were performed as described (Su et al., 1998, Proc Natl Acad Sci USA 95(24):14400-14405; Su et al., 2002, Oncogene 21(22):3592-602).
Positive and Negative Regulation of hEAAT2 Transcription, Promoter Activity and mRNA Levels in PHFA. Several enhancers of GLT-1 expression in rat astrocytes have been identified, including epidermal growth factor (EGF), transforming growth factor-α (TGF-α) and dibutyryl cyclic AMP (dbcAMP) (Swanson et al., 1997, J Neurosci 17(3):932-940; Zelenaia et al., 2000, Mol Pharmacol 57(4):667-678). Based on these considerations, experiments were performed to determine if these agents similarly modify human hEAAT2 expression in PHFA. Consistent with previous observations in rat astrocytes, 7-day treatment with EGF, TGF-α, and two analogs of cAMP, dbcAMP and bromo-cAMP, stimulated hEAAT2 mRNA expression in PHFA, whereas TNF-α decreased expression (FIG. 4B). […] In contrast, TNF-α decreased expression by 48 h (FIG. 4C).

hEAAT2 transcription = experiment: Nuclear run-on assay of hEAAT2 transcription in PHFA; details: 7-day treatment
Protocol: as §1
Primer Extension Analysis and Nuclear Run-on Assays. Primer extension assays were performed as described (Su et al., 2000, Oncogene 19(30):3411-3421). A primer with the sequence 5′-[…]-3′ (SEQ ID NO:6) complementary to the 5′ UTR of the hEAAT2 cDNA was used for this assay. Nuclear run-on assays were performed as described (Su et al., 1997, Proc Natl Acad Sci USA 94(17):9125-9130).
To examine whether stimulation of hEAAT2 expression involves transcriptional changes, nuclear run-on assays were performed.

hEAAT2 promoter = experiment: flhEAAT2Prom-luc and deletion mutant luciferase reporter assay in PHFA treated with modulators; details: deletion mutant; for stimulation of promoter activity after deletion of bp −2426 to bp −703 / upregulation of promoter activity after deletion of bp −703 to bp −326: four day treatment
Protocol: as §1
Construction of hEAAT2 Promoter Deletion Mutants and Performance of the Luciferase Assays. 5′-deletion mutants of the hEAAT2 promoter were made with exonuclease III digestion using the Erase-A-Base System (Promega) as described for the PEG-3 promoter (Su et al., 2000, Oncogene 19(30):3411-3421). The flhEAAT2Prom-luc and flhEAAT2Prom-luc deletion mutants were cloned into the pGL3-basic luciferase reporter vector (Promega) and luciferase reporter assays were performed as described (Su et al., 2000, Oncogene 19(30):3411-3421; Su et al., 2001, Nucleic Acids Res 29(8):1661-1671), except that instead of using lipofectamine, which was toxic to PHFA, the calcium phosphate precipitation transfection technique was used (Babiss et al., 1986, Proc Natl Acad Sci USA 83(7):2167-2171).
Preferential Expression of the hEAAT2 Promoter in PHFA and Deletion Analysis of the hEAAT2 Promoter. hEAAT2 is expressed in brain-derived cells, mainly astrocytes (Tanaka et al., 1997, Science 276(5319):1699-1702; Anderson et al., 2000, Glia 32(1):1-14). Experiments were performed to confirm hEAAT2 promoter activity in normal human astrocytes and to determine expression levels in other cell types (FIG. 2A). Primary early passage and established human normal and tumor cell lines were co-transfected with a putative full-length ˜2.5 kb hEAAT2 promoter, a SacII fragment extending from bp −2426 to bp +44, was cloned into the pGL3-basic vector (Promega), where it drove expression of the firefly luciferase (luc) gene, and a pSV-β-galactosidase expression plasmid. Relative fold expression of a full length hEAAT2 promoter-luciferase (flhEAAT2Prom-luc) construct was determined as described (Su et al., 2000, Oncogene 19(30):3411-3421; Su et al., 2001, Nucleic Acids Res 29(8):1661-1671), and activity versus transfection with a pSV-β-galactosidase plasmid was calculated as described (Su et al., 2000, Oncogene 19(30):3411-3421; Su et al., 2001, Nucleic Acids Res 29(8):1661-1671) to equalize for differences in transfection efficiency.
To examine further the relationship between hEAAT2 and treatment with the various glutamate transporter modulators, transient transfection assays were performed in PHFA using the flhEAAT2Prom-luc constructs and various deletions thereof (FIG. 4D). […] In the case of dbcAMP, promoter activity was enhanced by ˜3-fold.

hEAAT2 protein = experiment: Western blot of EAAT2 protein in PHFA
Protocol: (§3) FIG. 5A-E. Effect of pharmacological inhibitors on hEAAT2 promoter activity, and mRNA and protein expression in PHFA following various treatment protocols. A. hEAAT2 promoter activity in PHFA, either untreated (−) or treated with EGF (30 ng/ml), in the absence (−) or presence (+) of KT5720 (5 μM), AG1478 (1 μM), PDTC (100 μM), wortmannin (WRT) (100 nM) or PD98049 (PD) (50 μM). B. hEAAT2 promoter activity in PHFA, either untreated (−) or treated with bromo-cAMP (250 μM) in the absence (−) or presence (+) of KT5720 (5 μM), AG1478 (1 μM), PDTC (100 μM), wortmannin (WRT) (100 nM) or PD98049 (PD) (50 μM). C. hEAAT2 promoter activity in PHFA, either untreated (−) or treated with TNF-α (200 U/ml), in the absence (−) or presence (+) of KT5720 (5 μM), AG1478 (1 μM), PDTC (100 μM), wortmannin (WRT) (100 nM) or PD98049 (PD) (50 μM). D. The effect of the various treatment protocols on hEAAT2 and GAPDH mRNA levels. Upper panel presents relative hEAAT2 RNA expression versus GAPDH expression relative to control untreated or treated samples based on scanning of autoradiograms. Lower panel, actual Northern blots. E. The effect of the various treatment protocols on EAAT2 and ACTIN protein levels. Upper panel presents relative EAAT2 protein expression versus ACTIN expression relative to control untreated or treated samples based on scanning of autoradiograms. Individual experiments were performed 3 times using triplicate samples and S.D. from the mean is presented.
as §2

[1] = test system: hEAAT2 promoter activity, mRNA levels and protein levels; experiment: Pathway-specific inhibitors on modulated hEAAT2 promoter activity, mRNA and protein in PHFA; details: PDTC 100 μM, PD 50 μM; for effect on EGF (or TGF-α) enhancement of hEAAT2 promoter activity, mRNA and protein levels: EGF 30 ng/ml; for effect on EGF (or TGF-α) enhancement of hEAAT2 promoter activity, mRNA and protein levels / effect on bromo-cAMP (or dbcAMP) enhancement of hEAAT2 expression: KT5720 5 μM, AG1478 1 μM, wortmannin 100 nM; for effect on bromo-cAMP (or dbcAMP) enhancement of hEAAT2 expression: bromo-cAMP 250 μM
Protocol: as §3
Biochemical Basis for Positive and Negative Regulation of hEAAT2 Expression in PHFA. To define the biochemical pathways relevant to the regulation of hEAAT2 expression in PHFA resulting from the different treatment protocols, a pharmacological approach was employed. This involved the use of well-characterized pathway-specific inhibitors and determining effects on hEAAT2 promoter activity, mRNA levels and protein levels (FIG. 5). The inhibitors included, KT5720 (a protein kinase A. (PKA) inhibitor), AG1478 (a tyrosine kinase inhibitor), worttnannin (a phosphatidylinositol 3-kinase (PI-3K) inhibitor), pyrrolidinedithiocarbamate (PDTC, an inhibitor of NF-κB activation) and PD98059 (a mitogen-activated kinase (MEK1/MEK2) inhibitor) (Zelenaia et al., 2000, Mol Pharmacol 57(4):667-678).

stimulation of promoter activity after deletion of bp −2426 to bp −703 (hEAAT2 promoter): did not significantly decrease
Compound: EGF: epidermal growth factor, from Invitrogen
hEAAT2 mRNA expression (hEAAT2 mRNA): stimulated
time of highest (maximum) hEAAT2 mRNA upregulation (hEAAT2 mRNA; time course): 48 h
relative rate of transcription of hEAAT2 RNA compared with GAPDH (hEAAT2 transcription): elevated
promoter activity after further deletion of bp −326 to bp −120 (hEAAT2 promoter): did not result in any additional reduction
upregulation of promoter activity after deletion of bp −703 to bp −326 (hEAAT2 promoter): a level approximating that found in uninduced PHFA
hEAAT2 protein levels (hEAAT2 protein): upregulated

Compound: CCCCCCOC(=O)[C@]1(O)C[C@@H]2O[C@@]1(C)n1c3ccccc3c3c4c(c5c6ccccc6n2c5c31)C(=O)NC4 [KT5720]
effect on EGF (or TGF-α) enhancement of hEAAT2 promoter activity, mRNA and protein levels [1]: unaffected
effect on bromo-cAMP (or dbcAMP) enhancement of hEAAT2 expression [1]: eliminated

Compound: COc1cc2ncnc(Nc3cccc(Cl)c3)c2cc1OC [AG1478]
effect on EGF (or TGF-α) enhancement of hEAAT2 promoter activity, mRNA and protein levels [1]: abolished
effect on bromo-cAMP (or dbcAMP) enhancement of hEAAT2 expression [1]: unaffected

Compound: COc1cccc(-c2cc(=O)c3ccccc3o2)c1N [PD98059]
effect on EGF (or TGF-α) enhancement of hEAAT2 promoter activity, mRNA and protein levels [1]: significantly inhibited but not extinguished
effect on bromo-cAMP (or dbcAMP) enhancement of hEAAT2 expression [1]: partially inhibited
effect on TNF-α-decreased hEAAT2 promoter, mRNA and protein levels ([1]; cotreatment with TNF-α 200 U/ml): partial restoration of normal levels of hEAAT2 protein

Compound: Nc1ncnc2c1nc(Br)n2[C@@H]1O[C@@H]2COP(=O)(O)O[C@H]2[C@H]1O [bromo-cAMP]
hEAAT2 mRNA expression (hEAAT2 mRNA): stimulated
time of highest (maximum) hEAAT2 mRNA upregulation (hEAAT2 mRNA; time course): 48 h
time by which hEAAT2 mRNA expression was changed (hEAAT2 mRNA; time course, bromo-cAMP enhanced, TNF-α decreased): ≤ 24 h
relative rate of transcription of hEAAT2 RNA compared with GAPDH (hEAAT2 transcription): elevated
stimulation of promoter activity after deletion of bp −2426 to bp −703 (hEAAT2 promoter): did not significantly decrease
upregulation of promoter activity after deletion of bp −703 to bp −326 (hEAAT2 promoter): most relevant
hEAAT2 protein levels (hEAAT2 protein): upregulated

stimulation of promoter activity after deletion of bp −2426 to bp −703 (hEAAT2 promoter): did not significantly decrease
Compound: TGF-α: transforming growth factor-α, from Invitrogen
hEAAT2 mRNA expression (hEAAT2 mRNA): stimulated
relative rate of transcription of hEAAT2 RNA compared with GAPDH (hEAAT2 transcription): elevated
promoter activity after further deletion of bp −326 to bp −120 (hEAAT2 promoter): did not result in any additional reduction
upregulation of promoter activity after deletion of bp −703 to bp −326 (hEAAT2 promoter): a level approximating that found in uninduced PHFA
hEAAT2 protein levels (hEAAT2 protein): upregulated
